Test results: patent US8883745B2, “C—glycolipids with enhanced Th-1 profile” (New York University, priority 2006, dated 2014)

Key:
Type in all cases: in vivo
[1] = system: IFN-γ; assay: IFN-γ levels in sera upon i.v. glycolipid administration to BALB/c mice (ELISA); parameters: IFN-γ levels, test 1 / IFN-γ levels, test 2 / IFN-γ levels, average / IFN-γ levels, Total: unit not given here; details: for IFN-γ/IL-4 (BALB/c): ratio calculated from Tables 1-6; for IFN-γ/IL-4 (BALB/c) / IFN-γ levels, average / IFN-γ levels, test 1 / IFN-γ levels, test 2 / IFN-γ levels, Total: BALB/c; for IFN-γ levels, average / IFN-γ levels, test 1 / IFN-γ levels, test 2 / IFN-γ levels, Total: serum; for IFN-γ levels, Total: total over hours 0-72; for effect: higher/extended IFN-γ and IL-12 with much lower IL-4 compared to α-GalCer (KRN): C57BL/6 and BALB/c mice, 1 μg i.v.
Protocol: (§1) Five- to six-week-old female C57BL/6 mice and BALB/c mice were purchased from Taconic. Each glycolipid was stored at 1 mg/ml in 100% DMSO. Mice were injected intravenously with 1 μg of each glyocolipid diluted in 200 μL sterile phosphate buffered saline (PBS). At indicated time points, sera were collected from each animal, and concentrations of IFN-γ, IL-4, and IL-12 in the sera were evaluated by enzyme-linked immunosorbent assay (ELISA). Serum concentrations of IFN-γ, IL-4, and IL-12 were evaluated using an ELISA kit (eBioscience, San Diego, Calif.). Briefly, 96 well flat-bottom ELISA plates (NUNC) were coated with capture antibody according to the manufacture's recommendation and incubated overnight at 4° C. The plates were washed with PBS+0.05% Tween 20 (PBS-T), then incubated with manufacturer provided blocking solution for 1 hr at room temperature to block non-specific binding sites. After washing with PBS-T, sera diluted 1:10 was added to the wells and incubated for 2 hrs at room temperature. Plates were then incubated at room temperature for 1 hr with biotintylated detection antibody, washed, incubated with avidin conjugated to horse radish peroxidase (HRP) for 30 min at room temperature, washed, and finally incubated with tetramethylbenzidine substrate solution in the dark for 10 minutes at room temperature. The antibodies, avidin-HRP, and substrate solution were all diluted according to the manufacture's recommendation. Reactions were stopped with 2.0N sulfuric acid and the cytokine concentration in each well was determined by comparing the absorbance at 450 nm in each well to known standards. The levels of Th1- and Th2-type cytokines were determined in two different genetic backgrounds, i.e., in C57BL/6 mice and BALB/c mice. The following compounds were administered: A=compound (A-1 trans-conformer), B=compound (A-2), C=compound (A-3), D=compound (A-4), E=compound (A-5), Z=control (PBS alone), CRONY=α-C-GalCer, KRN=α-GalCer, GCK109 (A-1 trans-conformer), GCK151 (A-1 cis-conformer), GCK152 (A-7). The levels of cytokines were measured at 0, 2, 6, 12, 24, 48, and 72 hours after the compound administration. The levels of Th1-type cytokines IFN-γ and IL-12 are summarized in FIGS. 2A-C and 3A-C, respectively. Table 7 provides IFN-γ/IL-4 and IL-12/IL-4 ratios for various compounds, which can be used as indicators of their ability to selectively stimulate Th1-type immune responses.

[2] = system: IL-4; assay: IL-4 levels in sera upon i.v. glycolipid administration to BALB/c mice (ELISA); parameters: unit not given here; details: for IL-4 level, Total: total over hours 0-72
Protocol: as §1

[3] = system: IL-12; assay: IL-12 levels in sera upon i.v. glycolipid administration to C57BL/6 mice (ELISA); parameters: IL-12 levels, test 1 / IL-12 levels, test 2 / IL-12 levels, average / IL-12 levels, Total: unit not given here; details: for IL-12/IL-4 (B6): C57BL/6, ratio calculated from Tables 1-6; for IL-12 levels, average / IL-12 levels, test 1 / IL-12 levels, test 2 / IL-12 levels, Total: C57BL/6, serum; for IL-12 levels, Total: total over hours 0-72
Protocol: as §1

[4] = system: IL-12; assay: IL-12 levels in sera upon i.v. glycolipid administration to BALB/c mice (ELISA); parameters: IL-12 levels, test 1 / IL-12 levels, test 2 / IL-12 levels, average / IL-12 levels, Total: unit not given here; details: for IL-12/IL-4 (BALB/c): ratio calculated from Tables 1-6; for IL-12 levels, average / IL-12 levels, test 1 / IL-12 levels, test 2 / IL-12 levels, Total: serum; for IL-12 levels, Total: total over hours 0-72
Protocol: as §1

## CCCCCCCCCCCCCCCCCC/C=C/CCCCCCCCC(=O)N[C@@H](/C=C/[C@H]1O[C@H](CO)[C@H](O)[C@H](O)[C@H]1O)[C@H](O)[C@H](O)CCCCCCCCCCCCCC [A-1]
[1]
  IFN-γ/IL-4 (BALB/c): 37
  IFN-γ levels, Total: 25633
  effect: higher/extended IFN-γ and IL-12 with much lower IL-4 compared to α-GalCer (KRN): particularly pronounced
[1]; hour 0
  IFN-γ levels, average: 27
  IFN-γ levels, test 1: 27
  IFN-γ levels, test 2: 27
[1]; hour 2
  IFN-γ levels, average: 303
  IFN-γ levels, test 1: 373
  IFN-γ levels, test 2: 233
[1]; hour 6
  IFN-γ levels, average: 3990.5
  IFN-γ levels, test 1: 2814
  IFN-γ levels, test 2: 5167
[1]; hour 12
  IFN-γ levels, average: 5514
  IFN-γ levels, test 1: 4881
  IFN-γ levels, test 2: 6147
[1]; hour 24
  IFN-γ levels, average: 15250
  IFN-γ levels, test 1: 16100
  IFN-γ levels, test 2: 14400
[1]; hour 48
  IFN-γ levels, average: 484.5
  IFN-γ levels, test 1: 441
  IFN-γ levels, test 2: 528
[1]; hour 72
  IFN-γ levels, average: 62.5
  IFN-γ levels, test 1: 62
  IFN-γ levels, test 2: 63
[2]; hour 0
  IL-4 level, average: 27
  IL-4 level, test 1: 27
  IL-4 level, test 2: 27
[2]; hour 2
  IL-4 level, average: 431.5
  IL-4 level, test 1: 358
  IL-4 level, test 2: 505
[2]; hour 6
  IL-4 level, average: 95.5
  IL-4 level, test 1: 85
  IL-4 level, test 2: 106
[2]; hour 12
  IL-4 level, average: 51
  IL-4 level, test 1: 52
  IL-4 level, test 2: 50
[2]; hour 24
  IL-4 level, average: 41.5
  IL-4 level, test 1: 40
  IL-4 level, test 2: 43
[2]; hour 48
  IL-4 level, average: 44
  IL-4 level, test 1: 46
  IL-4 level, test 2: 42
[2]; hour 72
  IL-4 level, average: 4
  IL-4 level, test 1: 4
  IL-4 level, test 2: 4
[2]
  IL-4 level, Total: 696
[3]
  IL-12/IL-4 (B6): 2.9
  IL-12 levels, Total: 4332
[3]; hour 0
  IL-12 levels, average: 5
  IL-12 levels, test 1: 5
  IL-12 levels, test 2: 5
[3]; hour 2
  IL-12 levels, average: 20
  IL-12 levels, test 1: 40
  IL-12 levels, test 2: 0
[3]; hour 6
  IL-12 levels, average: 2181.5
  IL-12 levels, test 1: 1993
  IL-12 levels, test 2: 2370
[3]; hour 12
  IL-12 levels, average: 2071
  IL-12 levels, test 1: 1790
  IL-12 levels, test 2: 2352
[3]; hour 24
  IL-12 levels, average: 54
  IL-12 levels, test 1: 30
  IL-12 levels, test 2: 78
[3]; hour 48
  IL-12 levels, average: 0
  IL-12 levels, test 1: 0
  IL-12 levels, test 2: 0
[3]; hour 72
  IL-12 levels, average: 0
  IL-12 levels, test 1: 0
  IL-12 levels, test 2: 0
[4]
  IL-12/IL-4 (BALB/c): 21
  IL-12 levels, Total: 14462
[4]; hour 0
  IL-12 levels, average: 5
  IL-12 levels, test 1: 5
  IL-12 levels, test 2: 5
[4]; hour 2
  IL-12 levels, average: 119.5
  IL-12 levels, test 1: 0
  IL-12 levels, test 2: 239
[4]; hour 6
  IL-12 levels, average: 6981
  IL-12 levels, test 1: 7064
  IL-12 levels, test 2: 6898
[4]; hour 12
  IL-12 levels, average: 7001
  IL-12 levels, test 1: 7513
  IL-12 levels, test 2: 6489
[4]; hour 24
  IL-12 levels, average: 306
  IL-12 levels, test 1: 299
  IL-12 levels, test 2: 313
[4]; hour 48
  IL-12 levels, average: 0
  IL-12 levels, test 1: 0
  IL-12 levels, test 2: 0
[4]; hour 72
  IL-12 levels, average: 48.5
  IL-12 levels, test 1: 0
  IL-12 levels, test 2: 97

## CCCCCCCCCCCCCCCCCCCCCCCCCCCCC(=O)N[C@@H](/C=C/[C@H]1O[C@H](CO)[C@H](O)[C@H](O)[C@H]1O)[C@H](O)[C@H](O)CCCCCCCCCCCCCC [A-2, (3S,4S,5R)-1-C-(α-D-galactopyranosyl)-3-(N-nonacosanoylamino)-4,5-nonadec-(1,2-E)-enediol]
[1]
  IFN-γ/IL-4 (BALB/c): 43
  IFN-γ levels, Total: 26755
  effect: higher/extended IFN-γ and IL-12 with much lower IL-4 compared to α-GalCer (KRN): particularly pronounced
[1]; hour 0
  IFN-γ levels, average: 27
  IFN-γ levels, test 1: 27
  IFN-γ levels, test 2: 27
[1]; hour 2
  IFN-γ levels, average: 234
  IFN-γ levels, test 1: 197
  IFN-γ levels, test 2: 271
[1]; hour 6
  IFN-γ levels, average: 4185.5
  IFN-γ levels, test 1: 3723
  IFN-γ levels, test 2: 4648
[1]; hour 12
  IFN-γ levels, average: 6418.5
  IFN-γ levels, test 1: 7529
  IFN-γ levels, test 2: 5308
[1]; hour 24
  IFN-γ levels, average: 15500
  IFN-γ levels, test 1: 16500
  IFN-γ levels, test 2: 14500
[1]; hour 48
  IFN-γ levels, average: 325.5
  IFN-γ levels, test 1: 319
  IFN-γ levels, test 2: 332
[1]; hour 72
  IFN-γ levels, average: 62.5
  IFN-γ levels, test 1: 59
  IFN-γ levels, test 2: 66
[2]; hour 0
  IL-4 level, average: 27
  IL-4 level, test 1: 27
  IL-4 level, test 2: 27
[2]; hour 2
  IL-4 level, average: 330
  IL-4 level, test 1: 263
  IL-4 level, test 2: 397
[2]; hour 6
  IL-4 level, average: 127
  IL-4 level, test 1: 90
  IL-4 level, test 2: 164
[2]; hour 12
  IL-4 level, average: 49.5
  IL-4 level, test 1: 48
  IL-4 level, test 2: 51
[2]; hour 24
  IL-4 level, average: 45.5
  IL-4 level, test 1: 43
  IL-4 level, test 2: 48
[2]; hour 48
  IL-4 level, average: 40.5
  IL-4 level, test 1: 42
  IL-4 level, test 2: 39
[2]; hour 72
  IL-4 level, average: 2
  IL-4 level, test 1: 2
  IL-4 level, test 2: 2
[2]
  IL-4 level, Total: 623
[3]
  IL-12/IL-4 (B6): 4.8
  IL-12 levels, Total: 3969
[3]; hour 0
  IL-12 levels, average: 5
  IL-12 levels, test 1: 5
  IL-12 levels, test 2: 5
[3]; hour 2
  IL-12 levels, average: 161.5
  IL-12 levels, test 1: 178
  IL-12 levels, test 2: 145
[3]; hour 6
  IL-12 levels, average: 1363.5
  IL-12 levels, test 1: 1488
  IL-12 levels, test 2: 1239
[3]; hour 12
  IL-12 levels, average: 1818.5
  IL-12 levels, test 1: 1692
  IL-12 levels, test 2: 1945
[3]; hour 24
  IL-12 levels, average: 323
  IL-12 levels, test 1: 44
  IL-12 levels, test 2: 602
[3]; hour 48
  IL-12 levels, average: 250
  IL-12 levels, test 1: 500
  IL-12 levels, test 2: 0
[3]; hour 72
  IL-12 levels, average: 45.5
  IL-12 levels, test 1: 91
  IL-12 levels, test 2: 0
[4]
  IL-12/IL-4 (BALB/c): 30
  IL-12 levels, Total: 18864
[4]; hour 0
  IL-12 levels, average: 5
  IL-12 levels, test 1: 5
  IL-12 levels, test 2: 5
[4]; hour 2
  IL-12 levels, average: 74
  IL-12 levels, test 1: 141
  IL-12 levels, test 2: 7
[4]; hour 6
  IL-12 levels, average: 7251.5
  IL-12 levels, test 1: 7080
  IL-12 levels, test 2: 7423
[4]; hour 12
  IL-12 levels, average: 10800
  IL-12 levels, test 1: 11600
  IL-12 levels, test 2: 10000
[4]; hour 24
  IL-12 levels, average: 442.5
  IL-12 levels, test 1: 454
  IL-12 levels, test 2: 431
[4]; hour 48
  IL-12 levels, average: 66.5
  IL-12 levels, test 1: 0
  IL-12 levels, test 2: 133
[4]; hour 72
  IL-12 levels, average: 222.5
  IL-12 levels, test 1: 3
  IL-12 levels, test 2: 442
